Among the data in patent US20230391772A1, “METHODS AND COMPOSITIONS FOR TARGETED PROTEIN DEGRADATION” (Ranok Therapeutics (Hangzhou) Co. Ltd., priority 2020, published 2023) are EC50 and IC50 values, retold here.

pEC50, pIC50: −log10 of the molar value.

Assay [1] deals with NCI-H358 human non-small cell lung cancer. Description: NCI-H358 CCK-8 proliferation assay. The assay is classed as cell-based. The note with it: NCI-H358 cells, 72 hr. The procedure: The following cancer cell lines were employed: BT-474 human breast carcinoma (ATCC, #HTB-20); MIA PaCa-2 human pancreatic carcinoma [2 copies KRAS(G12C)](ATCC, #CRL-1420); NCI-H23 human non-small cell lung cancer [1 copy KRAS(G12C)](ATCC, #CRL-5800); NCI-H358 human non-small cell lung cancer [1 copy KRAS(G12C)](ATCC, #CRL-5807); LU65A human lung carcinoma (Pharmaron, Beijing, China). Cell lines were cultured essentially according to ATCC and Pharmaron recommendations.
Cancer Cell Line Proliferation (CCK-8) Assays
3-fold serial dilutions of each test compound were prepared ranging from 20 μM to 1.02 nM.
% Inhibition=100−(D−B)/(S−B)*100%. • S: Absorbance of cells treated with DMSO • D: Absorbance of compound-treated cells • B: Absorbance of medium with DMSO without cells

A further assay deals with T1, HSP90a protein (Homo sapiens, UniProt P07900).
T1 construct: purchased BPS Bioscience 50298
The experiment in a line: HSP90α-binding fluorescent polarization (FP) assay, BODIPY-labeled RNK04010 probe. The note with it: FP competition with RNK04010 (BODIPY-labeled), 5 nM, 300 min at 25° C. In a few lines: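 Compounds (20 μM down to 5.2 nM, 2.5-fold steps) compete with a 5 nM fluorescent tracer for N-terminal HSP90a, measured by fluorescence polarization. With FITC-geldanamycin, plates sit 120 min at 25 °C. With BODIPY-RNK04010, they sit 300 min at 25 °C.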

As for `C=CC(=O)N1CCN(c2nc(NCCC(=O)NCCOCCOc3ccc(-n4c(O)nnc4-c4cc(C(C)C)c(O)cc4O)cc3)nc3c2CCN(c2cc(O)cc4ccccc24)C3)CC1` [Compound 72, trifluoroacetic acid], in assay [1], the pEC50 was < 6.00. In addition, on HSP90a protein, the pIC50 is > 7.00.

Take `CCC(=O)N1CCN(c2nc(NCCC(=O)N3CCN(Cc4ccc5c(c4)CN(C(=O)c4cc(C(C)C)c(O)cc4O)C5)CC3)nc3c2CCN(c2cc(O)cc4ccccc24)C3)CC1` [Compound 57, 1-(4-((2-(2,4-dihydroxy-5-isopropylbenzoyl)isoindolin-5-yl)methyl)piperazin-1-yl)-3-((7-(3-hydroxynaphthalen-1-yl)-4-(4-propionylpiperazin-1-yl)-5,6,7,8-tetrahydropyrido[3,4-d]pyrimidin-2-yl)amino)propan-1-one, trifluoroacetic acid]: the pEC50 in assay [1] was < 6.00. This molecule showed a pIC50 on HSP90a protein of 6.00 to 7.00.

Consider `C=CC(=O)N1CCN(c2nc(NCCC(=O)NCc3ccc(-n4c(O)nnc4-c4cc(C(C)C)c(O)cc4O)cc3)nc3c2CCN(c2cc(O)cc4ccccc24)C3)CC1` [Compound 7, 3-((4-(4-acryloylpiperazin-1-yl)-7-(3-hydroxynaphthalen-1-yl)-5,6,7,8-tetrahydropyrido[3,4-d]pyrimidin-2-yl)amino)-N-(4-(3-(2,4-dihydroxy-5-isopropylphenyl)-5-hydroxy-4H-1,2,4-triazol-4-yl)benzyl)propanamide, trifluoroacetic acid], for which the pEC50 in assay [1] is < 6.00. On HSP90a protein, this molecule showed a pIC50 of 6.00 to 7.00.

For `CCC(=O)N1CCN(c2nc(NCCC(=O)NCc3ccc(-n4c(O)nnc4-c4ccc(O)cc4O)cc3)nc3c2CCN(c2cc(O)cc4ccccc24)C3)CC1` [Compound 31, N-(4-(3-(2,4-dihydroxyphenyl)-5-hydroxy-4H-1,2,4-triazol-4-yl)benzyl)-3-((7-(3-hydroxynaphthalen-1-yl)-4-(4-propionylpiperazin-1-yl)-5,6,7,8-tetrahydropyrido[3,4-d]pyrimidin-2-yl)amino)propanamide, trifluoroacetic acid], the pEC50 in assay [1] is < 6.00. Also, the pIC50 at HSP90a protein is < 6.00.

With `C=CC(=O)N1CCN(c2nc(NCCC(=O)NCCOCCOCCOc3ccc(-n4c(O)nnc4-c4cc(CC)c(O)cc4O)cc3)nc3c2CCN(c2cc(O)cc4ccccc24)C3)CC1` [Compound 5, 3-((4-(4-acryloylpiperazin-1-yl)-7-(3-hydroxynaphthalen-1-yl)-5,6,7,8-tetrahydropyrido[3,4-d]pyrimidin-2-yl)amino)-N-(2-(2-(2-(4-(3-(5-ethyl-2,4-dihydroxyphenyl)-5-hydroxy-4H-1,2,4-triazol-4-yl)phenoxy)ethoxy)ethoxy)ethyl)propanamide, trifluoroacetic acid], the pEC50 in assay [1] is < 6.00. For the same molecule, the pIC50 on HSP90a protein is < 6.00.

In the case of `CCC(=O)N1CCN(c2nc(=O)n(-c3ccc(C(=O)NCCOCCOc4ccc(-n5c(O)nnc5-c5cc(C(C)C)c(O)cc5O)cc4)nc3)c3nc(-c4c(O)cccc4F)c(F)cc23)[C@@H](C)C1` [Compound 130, N-(2-(2-(4-(3-(2,4-dihydroxy-5-isopropylphenyl)-5-hydroxy-4H-1,2,4-triazol-4-yl)phenoxy)ethoxy)ethyl)-5-(6-fluoro-7-(2-fluoro-6-hydroxyphenyl)-4-((S)-2-methyl-4-propionylpiperazin-1-yl)-2-oxopyrido[2,3-d]pyrimidin-1(2H)-yl)picolinamide], the pEC50 in assay [1] was < 6.00. At HSP90a protein, the pIC50 was > 7.00.

As to `C=CC(=O)N1CCN(c2nc(NCCC(=O)NCc3ccc(-n4c(O)nnc4-c4cc(C(C)C)c(O)cc4O)cc3F)nc3c2CCN(c2cccc4ccccc24)C3)C[C@H]1CC#N` [Compound 96, (R)-3-((4-(4-acryloyl-3-(cyanomethyl)piperazin-1-yl)-7-(naphthalen-1-yl)-5,6,7,8-tetrahydropyrido[3,4-d]pyrimidin-2-yl)amino)-N-(4-(3-(2,4-dihydroxy-5-isopropylphenyl)-5-hydroxy-4H-1,2,4-triazol-4-yl)-2-fluorobenzyl)propanamide, trifluoroacetic acid], the pEC50 in assay [1] was < 6.00. Moreover, the pIC50 at HSP90a protein was 6.00 to 7.00.
